Data taken from patent US20120130060A1, “Modified antisense oligopeptides with anticancer properties and method of obtaining them” (priority 2010, published 2012).

Legend:
[1] = Average lethal intravenous dose in rats; conditions: both, rat, in vivo
Excerpt: The calculation of the average lethal dose was made according to B. M. Shtabskiy's methods with the use of the equation:
where: • X1 and X2 are the values of the two extreme of the three doses studied that have an effect on more or less than 50% of the animals; the third dose is the intermediate; • Y1 ? Y2 are the lethality percentages corresponding to doses X1 and X2; • ΣY— is the sum of the three doses studied; the number of doses used in the calculations is equal to 3.
Then d, the average margin of error for the average lethal dose was found through use of the Miller-Tainter formula:
N is the total number of animals in the groups in which even one animal died or survived, and the confidence ranges were established.

[2] = ED50 and therapeutic index, comparative characteristics of Anticanum and Taxotere; format: in vivo

Work on CC(=O)O[C@@]12CO[C@@H]1C[C@H](O)[C@@]1(C)C(=O)[C@H](O)C3=C(C)[C@@H](OC(=O)[C@H](O)[C@@H](NC(=O)OC(C)(C)C)c4ccccc4)C[C@@](O)([C@@H](OC(=O)c4ccccc4)[C@H]21)C3(C)C [Taxotere] yielded an LD50 [1] of 0.12 mg/kg and an ED50 [2] of 0.035 mg/kg.
